Key:
[1] = target: Human sodium/glucose co-transporter type 1 (SGLT1) (Homo sapiens (Human), UniProt P13866); experiment: In vitro human SGLT1 inhibition assay (14C-AMG uptake); format: cell-based; set-up: key to SGLT1 (human SGLT1 IC50): ***: a value less than 0.01 μM; **: a value less than 0.1 μM; *: a value less than 1 μM; —: a value not measured or exceeding μM; settings: HEK293 cells expressing human HA-SGLT1, 14C-AMG uptake
Outline: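 HEK293 cells stably expressing human HA-tagged SGLT1 (30,000/well, overnight) were washed into Na+-containing uptake buffer (140 mM NaCl, HEPES/Tris, 1 mg/mL BSA, pH 7.3). Cells then received compound plus 100 nCi 14C-AMG for 1–2 h at 37 °C; after washing, AMG uptake was quantified by scintillation counting.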

[2] = target: Human sodium/glucose co-transporter type 2 (SGLT2) (Homo sapiens (Human), UniProt P31639); experiment: In vitro human SGLT2 inhibition assay (14C-AMG uptake); format: cell-based; settings: HEK293 cells expressing human HA-SGLT2, 14C-AMG uptake
Outline: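 HEK293 cells stably expressing HA-tagged human SGLT2, seeded overnight, washed into Na+-containing HEPES/Tris uptake buffer with 1 mg/mL BSA, pH 7.3. Compound added, then 14C-AMG (100 nCi); 1-2 h at 37 °C, 5% CO2. Washed cells counted by scintillation for 14C-AMG uptake.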

Chain of Human sodium/glucose co-transporter type 1 (SGLT1) (P13866 whole entry): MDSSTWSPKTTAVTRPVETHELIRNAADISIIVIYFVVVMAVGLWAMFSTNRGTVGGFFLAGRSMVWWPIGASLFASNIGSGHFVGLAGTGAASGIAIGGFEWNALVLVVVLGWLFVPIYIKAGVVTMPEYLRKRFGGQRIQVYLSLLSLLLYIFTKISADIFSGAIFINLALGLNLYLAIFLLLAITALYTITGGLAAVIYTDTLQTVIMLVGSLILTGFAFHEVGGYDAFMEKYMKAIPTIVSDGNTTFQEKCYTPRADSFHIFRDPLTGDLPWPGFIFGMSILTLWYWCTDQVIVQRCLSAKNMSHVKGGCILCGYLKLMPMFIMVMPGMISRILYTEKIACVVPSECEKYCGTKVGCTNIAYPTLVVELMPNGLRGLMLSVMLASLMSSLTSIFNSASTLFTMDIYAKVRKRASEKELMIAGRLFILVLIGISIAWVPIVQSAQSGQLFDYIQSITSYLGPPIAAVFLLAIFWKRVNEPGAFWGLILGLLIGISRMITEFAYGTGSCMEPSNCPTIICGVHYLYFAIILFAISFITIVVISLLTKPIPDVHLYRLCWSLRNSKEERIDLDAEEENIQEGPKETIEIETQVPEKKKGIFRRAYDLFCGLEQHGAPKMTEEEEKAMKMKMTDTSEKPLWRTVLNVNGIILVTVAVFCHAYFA
Chain of Human sodium/glucose co-transporter type 2 (SGLT2) (P31639 whole entry): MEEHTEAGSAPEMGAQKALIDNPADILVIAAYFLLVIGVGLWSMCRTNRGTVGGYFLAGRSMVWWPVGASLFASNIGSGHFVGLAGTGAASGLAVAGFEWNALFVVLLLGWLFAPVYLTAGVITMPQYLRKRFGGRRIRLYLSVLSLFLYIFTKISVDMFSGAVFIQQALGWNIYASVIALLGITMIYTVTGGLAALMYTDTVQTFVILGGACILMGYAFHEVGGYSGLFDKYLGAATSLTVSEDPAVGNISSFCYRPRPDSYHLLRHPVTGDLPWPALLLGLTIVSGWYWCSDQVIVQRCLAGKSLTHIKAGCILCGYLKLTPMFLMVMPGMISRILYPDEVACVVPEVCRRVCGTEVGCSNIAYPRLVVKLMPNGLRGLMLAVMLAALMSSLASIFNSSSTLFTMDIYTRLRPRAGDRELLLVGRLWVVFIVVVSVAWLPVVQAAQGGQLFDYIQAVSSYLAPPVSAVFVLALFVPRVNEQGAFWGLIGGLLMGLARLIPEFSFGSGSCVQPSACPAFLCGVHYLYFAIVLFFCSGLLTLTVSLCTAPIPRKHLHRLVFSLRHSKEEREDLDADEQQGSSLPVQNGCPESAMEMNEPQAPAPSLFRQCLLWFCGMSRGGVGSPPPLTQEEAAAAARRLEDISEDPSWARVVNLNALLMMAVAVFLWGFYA

| Compound | IC50 [1] [nM] | IC50 [2] [nM] | SGLT1 (human SGLT1 IC50) [1] |
| --- | --- | --- | --- |
| CS[C@H]1O[C@@H](c2ccc(C)c(Cc3ccc(CCCCNC(CO)(CO)CO)cc3)c2)[C@H](O)[C@@H](O)[C@@H]1O [(2S,3R,4R,5S,6R)-2-(3-(4-(4-((1,3-dihydroxy-2-(hydroxymethyl)propan-2-yl)amino)butyl)benzyl)-4-methylphenyl)-6-(methylthio)tetrahydro-2H-pyran-3,4,5-triol] | < 10 | < 10 |  |
| CS[C@H]1O[C@@H](c2ccc(C)c(Cc3ccc(OCCNC(C)(C)CO)cc3)c2)[C@H](O)[C@@H](O)[C@@H]1O [(2S,3R,4R,5S,6R)-2-(3-(4-(2-((1-hydroxy-2-methylpropan-2-yl)amino)ethoxy)benzyl)-4-methylphenyl)-6-(methylthio)tetrahydro-2H-pyran-3,4,5-triol] | < 10 | < 10 |  |
| CS[C@H]1OC(c2ccc(C)c(Cc3ccc(OCCNC(=O)N4CCN(C)CC4)cc3)c2)[C@H](O)[C@@H](O)[C@@H]1O (stereo partly drawn) [4-methyl-N-(2-(4-(2-methyl-5-((3R,4R,5S,6R)-3,4,5-trihydroxy-6-(methylthio)tetrahydro-2H-pyran-2-yl)benzyl)phenoxy)ethyl)piperazine-1-carboxamide] | < 10 | < 10 |  |
| CS[C@H]1O[C@@H](c2ccc(C)c(Cc3ccc(/C=C/CCC(=O)NC(C)(C)C(=O)N4CCN(C)CC4)cc3)c2)[C@H](O)[C@@H](O)[C@@H]1O [(E)-N-(2-methyl-1-(4-methylpiperazin-1-yl)-1-oxopropan-2-yl)-5-(4-(2-methyl-5-((2S,3R,4R,5S,6R)-3,4,5-trihydroxy-6-(methylthio)tetrahydro-2H-pyran-2-yl)benzyl)phenyl)pent-4-enamide] | < 10 | < 10 |  |
| CCC(=O)NCCCCc1ccc(Cc2cc([C@@H]3O[C@H](SC)[C@@H](O)[C@H](O)[C@H]3O)ccc2C)cc1 [N-(4-(4-(2-methyl-5-((2S,3R,4R,5S,6R)-3,4,5-trihydroxy-6-(methylthio)tetrahydro-2H-pyran-2-yl)benzyl)phenyl)butyl)propionamide] | < 10 | < 10 |  |
| CS[C@H]1O[C@@H](c2ccc(C)c(Cc3ccc(CCCC(=O)NC4(C(=O)N5CCN(C)CC5)CCCC4)cc3)c2)[C@H](O)[C@@H](O)[C@@H]1O [4-(4-(2-methyl-5-((2S,3R,4R,5S,6R)-3,4,5-trihydroxy-6-(methylthio)tetrahydro-2H-pyran-2-yl)benzyl)phenyl)-N-(1-(4-methylpiperazine-1-carbonyl)cyclopentyl)butanamide] | < 10 | < 10 |  |
| CS[C@H]1O[C@@H](c2ccc(C)c(Cc3ccc(CCCCC(=O)NC(C)(C)C(N)=O)cc3)c2)[C@H](O)[C@@H](O)[C@@H]1O [N-(1-amino-2-methyl-1-oxopropan-2-yl)-5-(4-(2-methyl-5-((2S,3R,4R,5S,6R)-3,4,5-trihydroxy-6-(methylthio)tetrahydro-2H-pyran-2-yl)benzyl)phenyl)pentanamide] | < 10 | < 10 |  |
| CS[C@H]1O[C@@H](c2ccc(C)c(Cc3ccc(OCCCC(=O)NCCO)cc3)c2)[C@H](O)[C@@H](O)[C@@H]1O [N-(2-hydroxyethyl)-4-(4-(2-methyl-5-((2S,3R,4R,5S,6R)-3,4,5-trihydroxy-6-(methylthio)tetrahydro-2H-pyran-2-yl)benzyl)phenoxy)butanamide] | < 100 | < 10 |  |
| CS[C@H]1O[C@@H](c2ccc(Cl)c(Cc3ccc(OCC(=O)NCCCC[C@H](N)C(=O)O)cc3)c2)[C@H](O)[C@@H](O)[C@@H]1O [(S)-2-amino-6-(2-(4-(2-chloro-5-((2S,3R,4R,5S,6R)-3,4,5-trihydroxy-6-(methylthio)tetrahydro-2H-pyran-2-yl)benzyl)phenoxy)acetamido)hexanoic acid] | < 100 | < 10 |  |
| CS[C@H]1O[C@@H](c2ccc(Cl)c(Cc3ccc(OCCCNC(=O)C(C)(C)CO)cc3)c2)[C@H](O)[C@@H](O)[C@@H]1O [N-(3-(4-(2-chloro-5-((2S,3R,4R,5S,6R)-3,4,5-trihydroxy-6-(methylthio)tetrahydro-2H-pyran-2-yl)benzyl)phenoxy)propyl)-3-hydroxy-2,2-dimethylpropanamide] | < 100 | < 10 |  |
| CS[C@H]1O[C@@H](c2ccc(C)c(Cc3ccc(CCCCC(=O)N4CCN(C)CC4)cc3)c2)[C@H](O)[C@@H](O)[C@@H]1O [5-(4-(2-methyl-5-((2S,3R,4R,5S,6R)-3,4,5-trihydroxy-6-(methylthio)tetrahydro-2H-pyran-2-yl)benzyl)phenyl)-1-(4-methylpiperazin-1-yl)pentan-1-one] | < 100 | < 10 |  |
| CS[C@H]1O[C@@H](c2ccc(C)c(Cc3ccc(OCCNC(=N)N)cc3)c2)[C@H](O)[C@@H](O)[C@@H]1O [1-(2-(4-(2-methyl-5-((2S,3R,4R,5S,6R)-3,4,5-trihydroxy-6-(methylthio)tetrahydro-2H-pyran-2-yl)benzyl)phenoxy)ethyl)guanidine] | < 10 | < 10 |  |
| CS[C@H]1O[C@@H](c2ccc(C)c(Cc3ccc(CCCc4nnnn4CC(=O)N4CCN(C)CC4)cc3)c2)[C@H](O)[C@@H](O)[C@@H]1O [2-(5-(3-(4-(2-methyl-5-((2S,3R,4R,5S,6R)-3,4,5-trihydroxy-6-(methylthio)tetrahydro-2H-pyran-2-yl)benzyl)phenyl)propyl)-1H-tetrazol-1-yl)-1-(4-methylpiperazin-1-yl)ethanone] | < 10 | < 10 |  |
| CS[C@H]1O[C@@H](c2ccc(C)c(Cc3ccc(CCCCC(=O)NC(CO)(CO)CO)cc3)c2)[C@H](O)[C@@H](O)[C@@H]1O [N-(1,3-dihydroxy-2-(hydroxymethyl)propan-2-yl)-5-(4-(2-methyl-5-((2S,3R,4R,5S,6R)-3,4,5-trihydroxy-6-(methylthio)tetrahydro-2H-pyran-2-yl)benzyl)phenyl)pentanamide] | < 10 | < 10 |  |
| CS[C@H]1O[C@@H](c2ccc(C)c(Cc3ccc(CCCC(=O)NC4(C(=O)N5CCN(C)CC5)CC4)cc3)c2)[C@H](O)[C@@H](O)[C@@H]1O [4-(4-(2-methyl-5-((2S,3R,4R,5S,6R)-3,4,5-trihydroxy-6-(methylthio)tetrahydro-2H-pyran-2-yl)benzyl)phenyl)-N-(1-(4-methylpiperazine-1-carbonyl)cyclopropyl)butanamide] | < 10 | < 10 |  |
| CS[C@H]1O[C@@H](c2ccc(Cl)c(Cc3ccc(OCCCC(=O)NC(C)(C)C(N)=O)cc3)c2)[C@H](O)[C@@H](O)[C@@H]1O [N-(1-amino-2-methyl-1-oxopropan-2-yl)-4-(4-(2-chloro-5-((2S,3R,4R,5S,6R)-3,4,5-trihydroxy-6-(methylthio)tetrahydro-2H-pyran-2-yl)benzyl)phenoxy)butanamide] | < 10 | < 10 |  |
| CCOc1ccc(Cc2cc([C@@H]3O[C@H](SC)[C@@H](O)[C@H](O)[C@H]3O)ccc2C)cc1 [(2S,3R,4R,5S,6R)-2-(3-(4-ethoxybenzyl)-4-methylphenyl)-6-(methylthio)tetrahydro-2H-pyran-3,4,5-triol] | < 100 | < 10 |  |
| CS[C@H]1O[C@@H](c2ccc(C)c(Cc3ccc(OCCCC(=O)NC(C)(C)C(=O)NC4CCN(C)CC4)cc3)c2)[C@H](O)[C@@H](O)[C@@H]1O [N-(2-methyl-1-((1-methylpiperidin-4-yl)amino)-1-oxopropan-2-yl)-4-(4-(2-methyl-5-((2S,3R,4R,5S,6R)-3,4,5-trihydroxy-6-(methylthio)tetrahydro-2H-pyran-2-yl)benzyl)phenoxy)butanamide] | < 10 | < 10 |  |
| CS[C@H]1O[C@@H](c2ccc(C)c(Cc3ccc(CCCCC(=O)NC(C)(C)C(=O)O)cc3)c2)[C@H](O)[C@@H](O)[C@@H]1O [2-methyl-2-(5-(4-(2-methyl-5-((2S,3R,4R,5S,6R)-3,4,5-trihydroxy-6-(methylthio)tetrahydro-2H-pyran-2-yl)benzyl)phenyl)pentanamido)propanoic acid] |  | < 100 | — |
| CS[C@H]1O[C@@H](c2ccc(C)c(Cc3ccc(CCCC(=O)NC(C)(C)C(=O)NC4CCNCC4)cc3)c2)[C@H](O)[C@@H](O)[C@@H]1O [N-(2-methyl-1-oxo-1-(piperidin-4-ylamino)propan-2-yl)-4-(4-(2-methyl-5-((2S,3R,4R,5S,6R)-3,4,5-trihydroxy-6-(methylthio)tetrahydro-2H-pyran-2-yl)benzyl)phenyl)butanamide] | < 10 | < 10 |  |
| CS[C@H]1O[C@@H](c2ccc(C)c(Cc3ccc(CCCCNC(=O)C(C)(C)CO)cc3)c2)[C@H](O)[C@@H](O)[C@@H]1O [3-hydroxy-2,2-dimethyl-N-(4-(4-(2-methyl-5-((2S,3R,4R,5S,6R)-3,4,5-trihydroxy-6-(methylthio)tetrahydro-2H-pyran-2-yl)benzyl)phenyl)butyl)propanamide] | < 10 | < 10 |  |
| CS[C@H]1O[C@@H](c2ccc(Cl)c(Cc3ccc(OCCCC(=O)N(C)C(C)(C)CO)cc3)c2)[C@H](O)[C@@H](O)[C@@H]1O [4-(4-(2-chloro-5-((2S,3R,4R,5S,6R)-3,4,5-trihydroxy-6-(methylthio)tetrahydro-2H-pyran-2-yl)benzyl)phenoxy)-N-(1-hydroxy-2-methylpropan-2-yl)-N-methylbutanamide] | < 100 | < 10 |  |
